Biological target: T1, human mAChR M1 (Homo sapiens, UniProt P11229)
T1 construct: host or cells: CHO-K1
T1 sequence (P11229 1-460): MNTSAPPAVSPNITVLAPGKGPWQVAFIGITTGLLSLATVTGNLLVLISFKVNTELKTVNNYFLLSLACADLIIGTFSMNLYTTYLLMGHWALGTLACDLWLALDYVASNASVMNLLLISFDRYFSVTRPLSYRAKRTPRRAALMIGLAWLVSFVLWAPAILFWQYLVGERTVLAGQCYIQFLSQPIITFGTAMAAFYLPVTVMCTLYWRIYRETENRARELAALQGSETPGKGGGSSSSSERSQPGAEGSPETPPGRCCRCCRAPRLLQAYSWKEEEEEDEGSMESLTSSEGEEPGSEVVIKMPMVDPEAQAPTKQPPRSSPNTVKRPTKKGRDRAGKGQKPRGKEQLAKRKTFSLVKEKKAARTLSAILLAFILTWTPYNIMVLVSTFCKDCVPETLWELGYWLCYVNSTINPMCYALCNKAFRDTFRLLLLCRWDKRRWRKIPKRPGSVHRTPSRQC
Assay: mAChR M1 cell-based functional assay (calcium mobilization, Fluo-4, FDSS)
Conditions: CHO-K1 cells stably expressing hM1; for Emax: EC20 acetylcholine response, read-out: Human M1 Emax; for EC50: positive allosteric modulator activity as increase in the EC20 acetylcholine response
Method in brief: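 CHO-K1 cells stably expressing muscarinic receptor, loaded with Fluo-4; 11-point 1:3 compound series added and calcium flux read over 300 s at 1 Hz. Agonism from direct calcium rise, PAM activity as potentiation of EC20 acetylcholine, antagonism as decrease of EC80 acetylcholine; four-parameter logistic fits.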

| Emax | EC50 | SMILES |
| --- | --- | --- |
| 76.4% | 1210 nM | Cn1ccc(-c2ccc(Cc3cc(C(=O)NCC4CCOC4)nc4c3ccn4C)cn2)n1 (stereo not shown) [Compound 151, 1-methyl-4-[[6-(1-methylpyrazol-3-yl)-3-pyridyl]methyl]-N-(tetrahydrofuran-3-ylmethyl)pyrrolo[2,3-b]pyridine-6-carboxamide] |
| 75.1% | 190 nM | Cn1ccc(-c2ccc(Cc3cc(C(=O)N[C@H]4CCC[C@@H]4O)nc4c3ccn4C)cn2)n1 [Compound 153, N-[(1S,2S)-2-hydroxycyclopentyl]-1-methyl-4-[[6-(1-methylpyrazol-3-yl)-3-pyridyl]methyl]pyrrolo[2,3-b]pyridine-6-carboxamide] |
| 59.7% | 50 nM | Cn1cc(-c2ccc(Cc3cc(C(=O)NC4CCOC(C)(C)C4)nc4sccc34)cn2)cn1 (stereo not shown) [Compound 115, N-(2,2-dimethyltetrahydropyran-4-yl)-4-[[6-(1-methylpyrazol-4-yl)-3-pyridyl]methyl]thieno[2,3-b]pyridine-6-carboxamide] |
| 61.4% | 630 nM | Cn1ccc(-c2ccc(Cc3cc(C(=O)NCC4CCOCC4)nc4sccc34)cc2)n1 [Compound 94, 4-[[4-(1-methylpyrazol-3-yl)phenyl]methyl]-N-(tetrahydropyran-4-ylmethyl)thieno[2,3-b]pyridine-6-carboxamide] |
| 86.2% | 380 nM | Cn1cc(-c2ccc(Cc3cc(C(=O)N[C@H]4CC[C@@H]4O)nc4c3ccn4C)cn2)cn1 [Compound 50, N-[(1S,2S)-2-hydroxycyclobutyl]-1-methyl-4-[[6-(1-methylpyrazol-4-yl)-3-pyridyl]methyl]pyrrolo[2,3-b]pyridine-6-carboxamide] |
| 75.1% | 70 nM | Cn1ncc2c(Cc3ccc(-c4cscn4)cc3)cc(C(=O)N[C@H]3CCOC[C@@H]3O)nc21 [Compound 27, N-[(3R,4S)-3-hydroxytetrahydropyran-4-yl]-1-methyl-4-[(4-thiazol-4-ylphenyl)methyl]pyrazolo[3,4-b]pyridine-6-carboxamide] |
| 78.1% | 370 nM | Cn1ccc(-c2ccc(Cc3cc(C(=O)NC4CC5(COC5)C4)nc4c3ccn4C)cn2)n1 [Compound 149, 1-methyl-4-[[6-(1-methylpyrazol-3-yl)-3-pyridyl]methyl]-N-(2-oxaspiro[3.3]heptan-6-yl)pyrrolo[2,3-b]pyridine-6-carboxamide] |
| 74.3% | 10 nM | Cn1cc(-c2ccc(Cc3cc(C(=O)N[C@H]4CCOC[C@@H]4O)nc4c3ccn4C)cn2)cn1 [Compound 45, N-[(3R,4S)-3-hydroxytetrahydropyran-4-yl]-1-methyl-4-[[6-(1-methylpyrazol-4-yl)-3-pyridyl]methyl]pyrrolo[2,3-b]pyridine-6-carboxamide] |
| 52.6% | 410 nM | Cn1ccc2c(Cc3ccc(-c4cscn4)cc3)cc(C(=O)NCC3CCOCC3)nc21 [Compound 26, 1-methyl-N-(tetrahydropyran-4-ylmethyl)-4-[(4-thiazol-4-ylphenyl)methyl]pyrrolo[2,3-b]pyridine-6-carboxamide] |
| 81.6% | 190 nM | Cn1ccc(-c2ccc(Cc3cc(C(=O)NC4CCOCC4(C)C)nc4c3ccn4C)cn2)n1 (stereo not shown) [Compound 147] |
| 81.2% | 750 nM | Cn1ccc(-c2ccc(Cc3cc(C(=O)NC4CCOCC4)nc4c3ccn4C)cc2)n1 [Compound 39, 1-methy1-4-[[4-(1-methylpyrazol-3-yl)phenyl]methyl]-N-tetrahydropyran-4-yl-pyrrolo[2,3-b]pyridine-6-carboxamide] |
| 69.9% | 280 nM | Cn1ccc(-c2ccc(Cc3cc(C(=O)NC4CC5(COC5)C4)nc4sccc34)cc2)n1 [Compound 96, 4-[[4-(1-methylpyrazol-3-yl)phenyl]methyl]-N-(2-oxaspiro[3.3]heptan-6-yl)thieno[2,3-b]pyridine-6-carboxamide] |
| 77.7% | 820 nM | Cn1ccc(-c2ccc(Cc3cc(C(=O)NCC4CCOCC4)nc4c3ccn4C)cn2)n1 [Compound 150] |
| 65.3% | 1110 nM | CC1CC(NC(=O)c2cc(Cc3ccc(-c4cscn4)cc3)c3ccn(C)c3n2)CC(C)O1 (stereo not shown) [Compound 24, N-(2,6-dimethyltetrahydropyran-4-yl)-1-methyl-4-[(4-thiazol-4-ylphenyl)methyl]pyrrolo[2,3-b]pyridine-6-carboxamide] |
| 63.5% | 480 nM | COCC(C)NC(=O)c1cc(Cc2ccc(-c3ccn(C)n3)cc2)c2ccsc2n1 (stereo not shown) [Compound 100, N-(2-methoxy-1-methyl-ethyl)-4-[[4-(1-methylpyrazol-3-yl)phenyl]methyl]thieno[2,3-b]pyridine-6-carboxamide] |
| 35.9% | > 10000 nM | Cc1nc(-c2ccc(Cc3cc(C(=O)NC4CC(F)C4)nc4sccc34)cc2)co1 (stereo not shown) [Compound 141] |
| 68.7% | 110 nM | Cn1ccc2c(Cc3ccc(-n4cccn4)cc3)cc(C(=O)NC3CC4(COC4)C3)nc21 [Compound 19, 1-methyl-N-(2-oxaspiro[3.3]heptan-6-yl)-4-[(4-pyrazol-1-ylphenyl)methyl]pyrrolo[2,3-b]pyridine-6-carboxamide] |
| 72.3% | 200 nM | CCn1ccc2c(Cc3ccc(-n4cccn4)cc3)cc(C(=O)NC3CC4(COC4)C3)nc21 [Compound 12, 1-ethyl-N-(2-oxaspiro[3.3]heptan-6-yl)-4-[(4-pyrazol-1-ylphenyl)methyl]pyrrolo[2,3-b]pyridine-6-carboxamide] |
| 73.3% | 390 nM | Cn1ccc2c(Cc3ccc(-n4cccn4)cc3)cc(C(=O)N[C@H]3CC[C@@H]3O)nc21 [Compound 20, N-[(1S,2S)-2-hydroxycyclobutyl]-1-methy1-4-[(4-pyrazol-1-ylphenyl)methyl]pyrrolo[2,3-b]pyridine-6-carboxamide] |
| 63.2% | 370 nM | COCCNC(=O)c1cc(Cc2ccc(-c3ccn(C)n3)nc2)c2ccsc2n1 [Compound 111, N-(2-methoxyethyl)-4-[[6-(1-methylpyrazol-3-yl)-3-pyridyl]methyl]thieno[2,3-b]pyridine-6-carboxamide] |
| 59.7% | 90 nM | CC1CC(NC(=O)c2cc(Cc3ccc(-c4ccn(C)n4)nc3)c3ccsc3n2)CC(C)O1 (stereo not shown) [Compound 104, N-(2,6-dimethyltetrahydropyran-4-yl)-4-[[6-(1-methylpyrazol-3-yl)-3-pyridyl]methyl]thieno[2,3-b]pyridine-6-carboxamide] |
| 41.2% | 40 nM | Cn1ccc(-c2ccc(Cc3cc(C(=O)N[C@H]4CCOC[C@@H]4O)nc4sccc34)cc2)n1 [Compound 89, N-[(3R,4S)-3-hydroxytetrahydropyran-4-yl]-4-[[4-(1-methylpyrazol-3-yl)phenyl]methyl]thieno[2,3-b]pyridine-6-carboxamide] |
| 60.5% | 810 nM | Cn1cc(-c2ccc(Cc3cc(C(=O)N[C@H]4CCCC[C@@H]4O)nc4sccc34)cn2)cn1 [Compound 113, N-[(1S,2S)-2-hydroxycyclohexyl]-4-[[6-(1-methylpyrazol-4-yl)-3-pyridyl]methyl]thieno[2,3-b]pyridine-6-carboxamide] |
| 60.4% | 2130 nM | Cn1ccc(-c2ccc(Cc3cc(C(=O)NC4CCOCC4)nc4sccc34)cc2)n1 [Compound 87, 4-[[4-(1-methylpyrazol-3-yl)phenyl]methyl]-N-tetrahydropyran-4-yl-thieno[2,3-b]pyridine-6-carboxamide] |
| 79.3% | 520 nM | Cn1ccc(-c2ccc(Cc3cc(C(=O)NC4CCOC(C)(C)C4)nc4c3ccn4C)cn2)n1 (stereo not shown) [Compound 146, N-(2,2-dimethyltetrahydropyran-4-yl)-1-methyl-4-[[6-(1-methylpyrazol-3-yl)-3-pyridyl]methyl]pyrrolo[2,3-b]pyridine-6-carboxamide] |
| 60.5% | 390 nM | Cc1nc(-c2ccc(Cc3cc(C(=O)NC4CC5(COC5)C4)nc4sccc34)cc2)co1 [Compound 139, 4-[[4-(2-methyloxazol-4-yl)phenyl]methyl]-N-(2-oxaspiro[3.3]heptan-6-yl)thieno[2,3-b]pyridine-6-carboxamide] |
| 57.9% | 140 nM | Cc1nc(-c2ccc(Cc3cc(C(=O)NC4CCOCC4)nc4sccc34)cc2)co1 [Compound 4, 4-[[4-(2-methyloxazol-4-yl)phenyl]methyl]-N-tetrahydropyran-4-yl-thieno[2,3-b]pyridine-6-carboxamide] |
| 58.4% | 110 nM | CC1COCCC1NC(=O)c1cc(Cc2ccc(-c3ccn(C)n3)nc2)c2ccsc2n1 (stereo not shown) [Compound 106, 4-[[6-(1-methylpyrazol-3-yl)-3-pyridyl]methyl]-N-(3-methyltetrahydropyran-4-yl)thieno[2,3-b]pyridine-6-carboxamide] |

| SMILES | Emax | EC50 |
| --- | --- | --- |
| Cn1ccc(-c2ccc(Cc3cc(C(=O)N[C@H]4CCOC[C@@H]4O)nc4c3ccn4C)cc2)n1 [Compound 37, N-[(3R,4S)-3-hydroxytetrahydropyran-4-yl]-1-methyl-4-[[4-(1-methylpyrazol-3-yl)phenyl]methyl]pyrrolo[2,3-b]pyridine-6-carboxamide] | 76.7% | 60 nM |

From patent US10899759B2, “Positive allosteric modulators of the muscarinic acetylcholine receptor M1” (Vanderbilt University, priority 2016, dated 2021)
